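96-well plates; 48 h exposure; 5 concentrations. Endpoints by linear interpolation between flanking doses. Not reached: highest tested concentration assigned. GI50 = concentration required for 50% inhibition of growth.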 Calls of active or inactive are those of the source. Rule as the data show it: active = GI50 up to about 1.1 µM and inactive = higher.

Some test systems named below: DLD-1; RXF 631; HOP-18; SNB-78; KM-20L2; DMS-114; XF498; LXFL 529; DMS-273.
Test in all cases: NCI tumour cell line growth inhibition, 48 h

On to `c1ccc(CN2CCc3[nH]c4ccccc4c3C2)cc1`, for which the GI50 in the assay on DLD-1 was 37.8 µM (inactive); in the assay on RXF 631 it was 18.8 µM (inactive); with HOP-18, 99.8 µM (inactive); with SNB-78 it was 35.6 µM (inactive); in the assay on KM-20L2 it was 15 µM (inactive); with DMS-114 it was 19.8 µM (inactive). The GI50 was 24.2 µM (inactive) in the assay with XF498, 22.9 µM (inactive) in the assay on LXFL 529 and 56.2 µM (inactive) in the assay with DMS-273.
In the case of `COc1ccc(/C=C\c2cc(OC)c(OC)c(OC)c2)cc1OC`, the GI50 in the assay on DLD-1 is 0.173 µM (active); with RXF 631, 0.195 µM (active); with HOP-18, 0.411 µM (active); with SNB-78, 0.0171 µM (active); in the assay with KM-20L2, 0.0771 µM (active); with DMS-114, 0.105 µM (active). In addition, the figures for the GI50 with XF498, in the assay on LXFL 529 and in the assay on DMS-273 were 0.122 µM (active), 0.186 µM (active) and 0.0207 µM (active), respectively.
For `NNC(=O)C(=O)N/N=C1/CCCC1C(=O)CCC(=O)Nc1ccc(Cl)cc1` (configuration not stated), the GI50 in the assay with DLD-1 was > 100 µM (inactive); with RXF 631, > 100 µM (inactive); in the assay on HOP-18, > 100 µM (inactive); in the assay with SNB-78, > 100 µM (inactive); in the assay with KM-20L2, 6.04 µM (inactive); with DMS-114, 63 µM (inactive). The GI50 with XF498 was > 100 µM (inactive); with LXFL 529, 20.6 µM (inactive); with DMS-273, 37.3 µM (inactive).

Values taken from ChEMBL document CHEMBL1201862, “PubChem BioAssay data set” (2004).
